These results are taken from PubChem BioAssay AID463204 (Broad Institute, 2010).

Calls of active or inactive are those of the source.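 The calls were made as follows: active = AC50 no more than ten times the top concentration tested, that is within one log above it; inconclusive = flat curve fit with activity between 30% and 70%, or invalid poor fit; inactive = AC50 beyond ten times the top tested dose.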

As a reminder, the AC50 is the midpoint of the concentration-response curve, whichever way the signal moves.

The assay relates to S. cerevisiae Mot1-301 ts growth rescue, BacTiter-Glo ATP luminescence. Briefly: restored Mot1-301 yeast growth at 38.5C – whole organism, S. cerevisiae, Mot1-301 ts mutant, luminescence, dose retest, SUMOylation pathway inhibitor project, confirmation (AID 463204).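 Also: growth at restrictive 38.5 degrees C of Mot1-301 OY566 strain; actives raise luminescence by restoring growth of the ts mutant at high temperature.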
As to `N#CCCN(C(=O)COC(=O)c1ccc(S(=O)(=O)Nc2ccccc2)cc1)c1ccccc1`, the AC50 was > 42 µM (inactive).
The value for `CC1=C(C)CS(=O)N(S(=O)(=O)c2ccc(Cl)cc2)C1` (centres undefined) was 3.41 µM; that for `COCCn1c(SCc2ccc(Cl)cc2)nc2c1c(=O)[nH]c(=O)n2C` was > 42 µM (inactive); that for `CCOc1ccc(OCC)c(NC(=O)C2COc3ccccc3O2)c1` (centres undefined) was > 42 µM (inactive).
The value for `CSc1cccc(N2C(=O)C3CCCN3C2=S)c1` (centres undefined) was > 42 µM (inactive); that for `COc1ccc2c(Cl)c(C(=O)NN3CCN(C)CC3)sc2c1` was > 42 µM (inactive).
Regarding `COc1ccc(C(=O)CC(=O)C(=O)Nc2ccc(C)c(Cl)c2)cc1`, the AC50 was > 42 µM (inactive).
The same measure for `CCN(CC)c1ccc(/C=N/NC(=O)OC(C)(C)C)cc1`: > 42 µM (inactive); for `O=C(CSCc1ccc(Cl)cc1)N1CCCCC1`: > 42 µM (inactive).
The value for `C=CCn1c(=N)c(C(=O)NCCCOC)cc2c(=O)n3ccccc3nc21` was > 42 µM (inactive); that for `CCOC(=O)c1cc2c(ccn2-c2ccc(F)cc2)n1CC(=O)N1CCN(C(=O)c2ccco2)CC1` was > 42 µM (inactive).
The same measure for `O=C(COc1ccccc1Cl)c1ccc[nH]1`: > 42 µM (inactive); for `O=C(CCCn1cnc([N+](=O)[O-])n1)Nc1cccc2ccccc12`: > 42 µM (inactive); for `Cc1cc(Br)ccc1NC(=O)c1cnc(N2CCN(c3ccccn3)CC2)c2ccccc12`: > 42 µM (inactive).
On to `COc1ccc(S(=O)(=O)N2CCc3cc4c(cc3C2C)OCCCO4)cc1` (centres undefined), for which the AC50 is > 42 µM (inactive).
Regarding `O=C(CCc1nc2sc3c(c2c(=O)[nH]1)CCCC3)N1CCN(c2ccccc2)CC1`, the AC50 is > 42 µM (inactive).
The value for `CC(C)CC(c1nnnn1C1CCCCC1)N1CCN(C(=O)c2ccco2)CC1` (centres undefined) was > 42 µM (inactive); that for `Nc1cccc2c1C(=O)N(c1ccccc1)C2=O` was > 42 µM (inactive); that for `COC(=O)c1sc2ccccc2c1NC(=O)c1ccc(S(=O)(=O)N2CCCC(C)C2)cc1` (centres undefined) was > 42 µM (inactive).
The value for `CCCCN(C(=O)C1=COCCO1)c1c(N)n(Cc2ccccc2)c(=O)[nH]c1=O` was > 42 µM (inactive).
The same measure for `COc1ccccc1NC(=O)c1nn(C)cc1Br`: > 42 µM (inactive).
On to `COc1ccc(NC(=O)Nc2ccccc2C(=O)N2CCCC2)cc1`, for which the AC50 is > 42 µM (inactive).
For the compound `CCC(NC(=O)c1ccccc1NC(=O)c1ccco1)C(=O)NC1CCCCC1` (centres undefined), the AC50 is > 42 µM (inactive).
Consider `COc1ccc(S(=O)(=O)Cc2ccc(C(=O)NCc3cccs3)o2)cc1`, for which the AC50 is > 42 µM (inactive).
With `CCOc1ccc(CCN2CN(C3CCCCC3)CNC2=S)cc1OCC`, the AC50 is > 42 µM (inactive).
In the case of `O=C(CC(c1ccccc1)c1ccccc1O)NCCN1CCOCC1` (centres undefined), the AC50 is > 42 µM (inactive).
On to `COC(=O)[C@H](Cc1ccccc1)NC(=O)NC(C)CCc1ccccc1` (some centres undefined), for which the AC50 is > 42 µM (inactive).
Turning to `COc1ccc(Nc2oc(-c3cccs3)nc2C#N)cc1`, the AC50 is > 42 µM (inactive).
Consider `O=C(CCSc1ccccc1)Nc1ncccn1`, for which the AC50 was > 42 µM (inactive).
As to `COCCN1C=C(C(=O)OC)C(c2cc3c(cc2Br)OCO3)C(C(=O)OC)=C1`, the AC50 is > 42 µM (inactive).
With `CN(C(=O)COc1cc(=O)n(C)c2ccccc12)c1ccc(Cl)cc1`, the AC50 was > 42 µM (inactive).
As for `CCN1CCN(CC(=O)N2N=CCC2c2ccccc2)CC1` (centres undefined), the AC50 is > 42 µM (inactive).
Regarding `O=c1[nH]c(CN2CCN(CCO)CC2)nc2ccccc12`, the AC50 was > 42 µM (inactive).
The value for `O=C1CC(c2ccccc2)C(=O)N1c1cccc(O)c1` (centres undefined) was > 42 µM (inactive).
The value for `CN(C(=O)c1ccncc1)c1nnc(-c2cnccn2)s1` was > 42 µM (inactive); that for `COc1ccccc1NC(=S)N(Cc1ccco1)Cc1cc2cccc(C)c2[nH]c1=O` was > 42 µM (inactive); that for `C=C(C)Cn1c(SCC(=O)N/N=C/c2ccccc2OCC(=O)O)nnc1-c1ccc(Br)cc1` was > 42 µM (inactive).
The value for `CCOC(=O)N1CCN(S(=O)(=O)c2ccc(C)c(C)c2)CC1` was > 42 µM (inactive); that for `Clc1ccc(CSc2nnc(CN3CCOCC3)n2-c2ccccc2)cc1Cl` was > 42 µM (inactive); that for `CCC(c1nnnn1C1CCCC1)N1CCN(c2cccc(OC)c2)CC1` (centres undefined) was > 21 µM (inactive).
Consider `COc1cc2ccccc2cc1C(=O)Nc1ccc(CN2CCOCC2)cc1`, for which the AC50 is > 42 µM (inactive).
The value for `CCN(CCn1cccn1)C(=O)C1CCC(=O)N(CCc2cccc(F)c2)C1` (centres undefined) was > 42 µM (inactive).
As to `COc1c(C)cc(S(=O)(=O)NC2CC(C)(C)NC(C)(C)C2)c(C)c1C`, the AC50 is > 42 µM (inactive).
The value for `CS(=O)(=O)C1=NSC2=NC(=O)/C(=C\c3ccc(OS(=O)(=O)c4ccccc4)cc3)C(=N)N21` was > 42 µM (inactive); that for `COC(=O)c1[nH]c2cc(C)ccc2c1NC(=O)CN1CCN(c2ccccc2OC)CC1` was > 21 µM (inactive).
In the case of `CCn1c(SCc2nc3ccccc3s2)nnc1-c1ccccc1`, the AC50 is > 42 µM (inactive).
In the case of `O=C(Cc1ccccc1)N1CCCC1c1ccccc1` (centres undefined), the AC50 was > 42 µM (inactive).
The value for `CCCc1nc2c(nnn2Cc2ccccc2F)c(=O)[nH]1` was > 42 µM (inactive); that for `O=c1nc2ccc(Cl)cn2c2ccc(S(=O)(=O)N3CCOCC3)cc12` was > 42 µM (inactive); that for `CCn1c(SCC(=O)Nc2ccc(OCc3ccccc3)cc2)nnc1-c1ccco1` was > 42 µM (inactive).
The same measure for `N#Cc1cc2c(nc1SC1CCCCC1O)CCCC2` (centres undefined): > 42 µM (inactive); for `O=S(=O)(c1ccc(C2CCCCC2)cc1)N1CCCC1`: > 42 µM (inactive).
The same measure for `CCCN(CCC)C(=O)CSc1ncccc1C(=O)O`: > 42 µM (inactive); for `Cc1c(C(=O)N2CCOCC2)c(S(=O)(=O)Nc2cccc(Br)c2)c(C)n1C`: > 42 µM (inactive); for `CCCC(O)(CCC)C(=O)NNc1ccc(C)cc1`: > 42 µM (inactive).
As to `CC1(C)CC(=O)C(CC2CCCCC2=O)C(=O)C1` (centres undefined), the AC50 is > 42 µM (inactive).
Take `Cc1ccc(N/C=C(\C#N)c2ccc(OCCCF)cc2)cc1`: the AC50 is > 42 µM (inactive).
The same measure for `Cc1cc(C)cc(C(=O)Oc2cc(C)[nH]c(=O)c2[N+](=O)[O-])c1`: > 42 µM (inactive); for `Cc1ccc(C(=O)N/C(=C\c2cccs2)C(=O)NCCc2c[nH]c3ccccc23)cc1`: > 42 µM (inactive); for `COC(=O)CN(C(=S)Nc1ccc(F)cc1)C1CC(=O)N(c2ccccc2)C1=O` (centres undefined): > 42 µM (inactive).
Regarding `Cc1ccc2nc(/C(C#N)=C\c3cc(O)ccc3[N+](=O)[O-])[nH]c2c1`, the AC50 was > 42 µM (inactive).
`CCn1nccc1C(=O)Nc1nccs1`: the AC50 is > 42 µM (inactive).
The same measure for `CCN1C(=NCCCCO)N[C@@H](c2cccc(C(F)(F)F)c2)C(C(=O)OC)=C1C`: > 42 µM (inactive).
The same measure for `C/C(=N\N=C(c1ccccc1)c1ccccc1)c1ccco1`: > 42 µM (inactive); for `CC(C)(C)NC(=S)NCc1cccnc1`: > 42 µM (inactive).
The value for `COc1ccc2c(c1)[C@H]1[C@H](CO2)[C@H](c2ccccc2)[C@]2(C)C(=O)Nc3ccc(Br)cc3C(=O)N12` was 1.17 µM; that for `COc1cc2c(=O)n(-c3ccc(C)cc3)c(=O)n(CC(=O)c3ccc4c(c3)OCO4)c2cc1OC` was > 42 µM (inactive).
Consider `CCN1CCCC(NC(=O)c2scc3c2CCCC3)C1` (centres undefined), for which the AC50 is > 42 µM (inactive).
The value for `CCOC(=O)N1CCC(Nc2nc3ccccc3n3nnnc23)CC1` was > 42 µM (inactive).
For the compound `CC(=O)c1c(N)[nH]c(-c2ccccc2)nc1=S`, the AC50 is > 42 µM (inactive).
The same measure for `O=C(NCCc1cnccn1)C1CCC(=O)N(Cc2ccc(Cl)cc2)C1` (centres undefined): > 42 µM (inactive); for `O=C(O)c1ccc(CNC(=O)c2ccccc2NC(=O)c2ccc([N+](=O)[O-])cc2)cc1`: > 42 µM (inactive).
Regarding `NC(=O)c1cc(S(=O)(=O)N2CCCC2)ccc1OCc1ccc(F)cc1`, the AC50 is > 42 µM (inactive).
As to `Nc1nc2ccccc2cc1-c1cccs1`, the AC50 was > 42 µM (inactive).
With `O=C(COc1ccccc1)NCCS(=O)(=O)N1CCN(c2ccccc2)CC1`, the AC50 was > 42 µM (inactive).
The same measure for `c1ccc(N2CCN(C3CCSC3)CC2)cc1` (centres undefined): > 42 µM (inactive); for `CN(C)S(=O)(=O)c1cc(NC(=O)CSc2nn(-c3ccc(Cl)cc3)c(=S)s2)ccc1Cl`: 31.1 µM.
Turning to `Cc1nc2ccc(NC(=O)c3ccc(S(=O)(=O)N4CCOCC4)cc3)cc2s1`, the AC50 is > 42 µM (inactive).
The same measure for `COc1ccc(C(=O)NC(=S)Nc2ccc(CN3CCCCC3)cc2)cc1Cl`: > 42 µM (inactive); for `C/C=C(/C)C(=O)OC1c2c(ccc3ccc(=O)oc23)OC(C)(C)C1OC(=O)/C(C)=C\C` (centres undefined): > 42 µM (inactive); for `COc1ccc2c(c1)c(CC(=O)OCC(N)=O)c(C)n2C(=O)c1ccc(Cl)cc1`: > 42 µM (inactive).
The same measure for `c1ccc(-c2csc(NC3CCCCC3)n2)cc1`: > 42 µM (inactive).
The same measure for `Oc1c(Cl)cc(Cl)cc1/C=N/c1nc(-c2ccc(Cl)cc2)cs1`: 34.1 µM.
Regarding `Cc1n[nH]c(=O)nc1NCc1ccc(Cl)cc1`, the AC50 was > 42 µM (inactive).
The same measure for `COC(=O)c1ccncc1C(=O)Nc1ccc(Oc2ncc(C(F)(F)F)cc2Cl)cc1`: > 42 µM (inactive); for `O=C(Cc1cccs1)Nc1cccc(-c2nnc(-c3ccco3)o2)c1`: > 42 µM (inactive); for `CC(=O)c1ccc(Nc2cc(C)nc3ccccc23)cc1`: > 42 µM (inactive).
The value for `N=c1sccn1CC(=O)Nc1cccc(S(N)(=O)=O)c1` was > 42 µM (inactive); that for `O=C1c2cccc3c(N4CCCCC4)ccc(c23)C(=O)N1CCO` was > 42 µM (inactive).
